Data published in patent publication US9119805B2, “Therapy and prevention of problem drinking” (THE UNIVERSITY OF SYDNEY, priority 2009, dated 2015).
Entries after “also recorded” stand apart in the source; their conditions may differ.

What was measured:
Male Wistar rats = experiment: Home-cage free access to 4.5% ethanol beer after oxytocin prophylaxis (Example 3, FIGS. 5-7); format: in vivo, rat
Description: Male Wistar rats (n=48) were obtained from the Animal Resource Centre (ARC), Perth, Western Australia, Australia. The animals were of early adolescent age (i.e., 21 days-old) on arrival and were young adults (i.e., 33 days-old) when oxytocin therapy commenced. The animals were housed and maintained as described in the preceding examples, except that animals were moved to individual housing during chronic exposure to alcohol.
One-half of the rats (n=24) were administered 10 injections of 1 mg/kg oxytocin (1×I/P injection per day for a total of 10 days). The other half of the rats (n=24) received equivalent injections of placebo/vehicle lacking oxytocin.
A subset of the treated rats (n=8 per condition) were exposed to alcohol in the lickometer apparatus over a 10 day period. On the first day of testing, animals were exposed to a 70 min session in the lickometer during which a low-alcohol near-beer was provided at both lick tubes (Birell's Premium, containing 0.5% alcohol). On subsequent days, animals were exposed to further 70 min test sessions during which near-beer supplemented with increasing amounts of absolute ethanol were provided at both lick tubes i.e., to produce a beer comprising 1.5%, 2.5%, 3.5% and finally 4.5% ethanol. The concentration of ethanol was then maintained at 4.5% for all subsequent testing.
After 9 days of lickometer testing, the rats were given free access to 4.5% ethanol containing beer for a 24-day period in their home cages. Standard rat chow and tap water were also available in the home cages. Alcohol intakes and body weights were measured daily.

[1] = tested on: alcohol-dependent adults and non-dependent problem drinkers; experiment: Human Study 1: intranasal oxytocin, stress and alcohol-related cues; format: in vivo; conditions: during presentation of stress and alcohol cues, versus placebo
Description: The underlying mechanisms of intranasal oxytocin during exposure to stress and alcohol related cues in adult alcohol-dependent and adult non-dependent problem drinkers are determined.
In particular, at least twenty male and female adults reporting alcohol dependence according to the Diagnostic and Statistical Manual of Mental Disorders, Fourth Edition (DSM-IV) as determined by the Structured Clinical Interview for the DSM-IV (SCID-IV) are recruited from the community to participate in a laboratory based investigation on the role of oxytocin in stress-related alcohol craving. […]
Subjects returning to the Brain and Mind Research Institute on the afternoon of the final day of testing are evaluated. Bloods and saliva are taken, and plasma oxytocin and cortisol levels and saliva cortisol are determined and compared to baseline levels before commencement of therapy. […] Changes in mood, drinking behavior and neuropsychology are evaluated for both groups by comparison with baseline evaluations. Changes in smoking behavior are evaluated by FTND testing and comparison with baseline evaluations. HR and BP records over the period and at cessation are also determined and compared to baseline levels before commencement of therapy. […]

[2] = FIG. 6 panel A, start of exposure

## CC[C@H](C)[C@@H]1NC(=O)[C@H](Cc2ccc(O)cc2)NC(=O)[C@@H](N)CSSC[C@@H](C(=O)N2CCC[C@H]2C(=O)N[C@@H](CC(C)C)C(=O)NCC(N)=O)NC(=O)[C@H](CC(N)=O)NC(=O)[C@H](CCC(N)=O)NC1=O [oxytocin]
Male Wistar rats; FIG. 5, final oxytocin injection about 30 days before exposure to alcohol, versus placebo
  average daily intake of full strength beer: significantly reduced alcohol consumption; also recorded: consistently less alcohol intake
Male Wistar rats; FIG. 6, same period
  consumption of water: did not significantly modify consumption of water; also recorded: unchanged
Male Wistar rats; FIG. 6, 10 daily IP injections ending about 21 days before 24 days beer exposure, versus saline vehicle
  escalation of alcohol consumption / alcohol intake: significantly reduced an escalation of alcohol consumption; also recorded: consistently less alcohol intake
Male Wistar rats; FIG. 6 panel A, over 24 days
  ethanol consumption after marginal increase: 10-10.8 g/kg of pure ethanol per day
Male Wistar rats; [2]
  initial beer consumption: about 110 ml of beer per day
  initial ethanol consumption: about 9 g/kg of pure ethanol per day
Male Wistar rats; FIG. 6 panel A, versus animals without oxytocin
  reduction of initial alcohol consumption: about 10%
Male Wistar rats; FIG. 7 panel A, final week of the experiment, versus saline vehicle
  total consumption of full strength beer: significantly reduced later consumption of alcohol
Male Wistar rats; FIG. 7 panel B, final week
  total water consumption: no significant difference in total water consumption
Male Wistar rats; FIGS. 5-7, versus placebo
  alcohol consumed with free access to full strength beer in home cages: consumed consistently less alcohol
Male Wistar rats; oxytocin pre-treated rats versus controls, FIG. 5 experiment
  body weight and food intake: same body weight and food intake as controls
Male Wistar rats; oxytocin pre-treated rats, FIG. 5 experiment
  general health: appeared healthy
[1]
  anxiety and stress: lower
  subjective craving for alcohol: lower
